The values that follow come from ChEMBL document CHEMBL2069250, “Indole-2-carboxamides as allosteric modulators of the cannabinoid CB₁ receptor” (J Med Chem, 2012).

Bounds are passed on as bounds.

What all share (assay type): cell-based
Assay [1] has as its target T1, Cannabinoid receptor 1 (Homo sapiens, UniProt P21554). The experiment in a line: Allosteric modulation of human recombinant CB1 receptor expressed in HEK293 cells assessed as stimulation of [3H]CP55940 binding.
Assay [2] addresses T1, Cannabinoid receptor 1. As to the kind of experiment: Allosteric modulation of human recombinant CB1 receptor expressed in HEK293 cells assessed as stimulation of [3H]CP55940 binding at 10 uM.
Assay [3] has as its target T2, Cannabinoid receptor 2 (Homo sapiens, UniProt P34972). As to the kind of experiment: Allosteric modulation of human recombinant CB2 receptor expressed in HEK293 cells assessed as inhibition of [3H]CP55940 binding at 10 uM.
The target of assay [4] is T2, Cannabinoid receptor 2. As to the kind of experiment: Allosteric modulation of human recombinant CB2 receptor expressed in HEK293 cells assessed as inhibition of [3H]CP55940 binding.
Assay [5] deals with T1, Cannabinoid receptor 1. As to the kind of experiment: Allosteric modulation of human recombinant CB1 receptor expressed in HEK293 cells assessed as inhibition of [3H]CP55940 binding.
Assay [6] has as its target T1, Cannabinoid receptor 1. The experiment in a line: Allosteric modulation of human recombinant CB1 receptor expressed in HEK293 cells assessed as inhibitor of [3H]CP55940 binding at 10 uM.
Assay [7] concerns the target T2, Cannabinoid receptor 2. As to the kind of experiment: Allosteric modulation of human recombinant CB2 receptor expressed in HEK293 cells assessed as stimulation of [3H]CP55940 binding at 10 uM.
The target in assay [8] is T2, Cannabinoid receptor 2. As to the kind of experiment: Allosteric modulation of human recombinant CB2 receptor expressed in HEK293 cells assessed as stimulation of [3H]CP55940 binding.
For assay [9], the target named is T1, Cannabinoid receptor 1. As to the kind of experiment: Allosteric modulation of human recombinant CB1 receptor expressed in HEK293 cells assessed as inhibition of [3H]CP55940 binding at 25 uM.

What is called EC50 is the concentration giving half of the maximal effect. As usually defined, the inhibition is how much of the control response was suppressed. Broadly, the IC50 is the concentration that inhibits the measured activity by half.

T1 sequence (P21554 whole entry): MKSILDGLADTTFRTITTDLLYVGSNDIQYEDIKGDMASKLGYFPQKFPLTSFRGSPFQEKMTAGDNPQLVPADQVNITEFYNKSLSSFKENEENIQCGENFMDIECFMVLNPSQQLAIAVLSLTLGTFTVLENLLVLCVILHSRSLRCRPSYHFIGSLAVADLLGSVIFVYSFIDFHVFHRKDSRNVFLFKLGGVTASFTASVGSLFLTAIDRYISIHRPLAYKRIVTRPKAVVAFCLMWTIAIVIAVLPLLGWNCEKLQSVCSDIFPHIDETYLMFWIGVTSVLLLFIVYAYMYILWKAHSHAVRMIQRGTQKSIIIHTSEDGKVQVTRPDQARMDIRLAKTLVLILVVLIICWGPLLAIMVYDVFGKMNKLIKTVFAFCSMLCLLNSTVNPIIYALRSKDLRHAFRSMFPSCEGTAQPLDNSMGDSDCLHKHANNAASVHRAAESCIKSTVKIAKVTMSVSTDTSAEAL
T2 sequence (P34972 whole entry): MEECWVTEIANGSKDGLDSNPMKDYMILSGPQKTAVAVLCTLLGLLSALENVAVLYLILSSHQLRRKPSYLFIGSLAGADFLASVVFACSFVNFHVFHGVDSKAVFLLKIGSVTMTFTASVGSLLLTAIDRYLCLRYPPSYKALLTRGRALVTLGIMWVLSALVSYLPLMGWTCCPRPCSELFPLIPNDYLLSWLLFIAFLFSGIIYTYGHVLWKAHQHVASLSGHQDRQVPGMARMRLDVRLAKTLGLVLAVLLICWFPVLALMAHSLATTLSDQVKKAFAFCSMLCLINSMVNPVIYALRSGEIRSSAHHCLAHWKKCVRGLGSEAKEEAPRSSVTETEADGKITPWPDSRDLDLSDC

Regarding `CCc1c(C(=O)NCCc2ccc(N)cc2)[nH]c2ccc(Cl)cc12`, the EC50 in assay [1] was greater than 10 µM. Besides, the Activity in assay [2] amounted to 145%. The inhibition in assay [3] was found to be 31.1%. The IC50 in assay [4] was greater than 10 µM.
With `CCc1c(C(=O)NCCc2ccc(F)cc2)[nH]c2ccc(Cl)cc12`, in assay [1], the EC50 is greater than 10 µM. For the same compound, the Activity in [2] is 112%. The inhibition in assay [3] is 37.7%. Further, the IC50 in assay [4] was greater than 10 µM.
Turning to `CCc1c(C(=O)NCCc2ccc(N(C)C)cc2)[nH]c2ccc(Cl)cc12`, in assay [1], the EC50 came to 0.05 µM. In [2], the Activity is 227%. For the same compound, in [3], the inhibition was 22.8%. The IC50 in assay [4] is greater than 10 µM.
With `CCc1c(C(=O)OCCc2ccc([N+](=O)[O-])cc2)[nH]c2ccc(Cl)cc12`, the IC50 in assay [5] and in assay [4] was greater than 10 µM in each case. The inhibition in assay [3] stood at 16.8%; in assay [6] it was 24.7%.
In the case of `CCc1c(C(=O)NCCc2ccc(N3CCCCC3)cc2)[nH]c2ccc(Cl)cc12`, in assay [1], the EC50 was determined as 0.14 µM. For the same compound, the Activity in assay [2] was found to be 244%. In assay [3], the inhibition is 20.6%. The half-inhibitory concentration (IC50) in assay [4] is greater than 10 µM.
`CCc1c(C(=O)OCCc2ccc(N(C)C)cc2)[nH]c2ccc(Cl)cc12`: the IC50 in assay [5] was greater than 10 µM; in assay [4], 5.57 µM. Further, the inhibition stood at 65.7% in assay [3] and 19.6% in [6].
`O=C(NCCc1ccc([N+](=O)[O-])cc1)c1cc2cc(Cl)ccc2[nH]1`: the EC50 in assay [1] was greater than 10 µM. For the same compound, the Activity in assay [2] is 141%. The inhibition in assay [3] came to 32.7%. In addition, the IC50 in [4] was greater than 10 µM.
Turning to `CCc1c(C(=O)NCCc2ccc(NC)cc2)[nH]c2ccc(Cl)cc12`, the concentration for a half-maximal effect (EC50) in [1] was determined as 0.96 µM. The Activity in assay [2] turned out to be 183%. For the same compound, the inhibition in [3] stood at 55.7%. For the same compound, the IC50 in [4] was found to be 9.13 µM.
Taken in the same sequence, the figures for `O=C(NCCc1ccc(N2CCCCC2)cc1)c1cc2cc(Cl)ccc2[nH]1` were 0.09 µM, 207%, 37.9% and greater than 10 µM.
As for `CC(O)c1c(C(=O)NCCc2ccc(N3CCCCC3)cc2)[nH]c2ccc(Cl)cc12` (racemic), the EC50 in assay [1] worked out at 8.45 µM. Besides, in assay [2], the Activity was found to be 180%. Besides, the inhibition in assay [3] is 33.1%. Also, the IC50 in [4] is greater than 10 µM.
Consider `CCc1c(C(=O)NCCc2ccc(N3CCCC3)cc2)[nH]c2ccc(Cl)cc12`, for which the EC50 in assay [1] and in assay [8] was greater than 10 µM throughout. Further, the Activity in [2] worked out at 134%; in assay [7], 135%.
Regarding `CCc1c(C(=O)OCCc2ccc(N3CCCCC3)cc2)[nH]c2ccc(Cl)cc12`, the IC50 in assay [5] is greater than 10 µM; in [4] it was 8.26 µM. Also, the values for the inhibition in [3] and in assay [6] were 52.7% and 18%, respectively.
Turning to `Cc1c(C(=O)NCCc2ccc(N3CCCCC3)cc2)[nH]c2ccc(Cl)cc12`, the EC50 in assay [1] is 0.23 µM; in assay [8] it was greater than 10 µM. The Activity in assay [2] is 243%; in assay [7], 111%.
For `CCc1c(C(=O)NCCc2ccc(Cl)cc2)[nH]c2ccc(Cl)cc12`, in [1], the EC50 came out at 0.76 µM. For the same compound, the Activity in assay [2] came to 179%. In addition, in assay [3], the inhibition is 48.9%. Further, the IC50 in assay [4] was greater than 10 µM.
Turning to `CCc1c(C(=O)NCCc2ccc(N3CCN(C)CC3)cc2)[nH]c2ccc(Cl)cc12`, the EC50 in assay [1] is greater than 10 µM. The Activity in assay [2] worked out at 132%. Also, the inhibition in [3] worked out at 66.7%. In addition, the half-inhibitory concentration (IC50) in assay [4] was found to be 6.97 µM.
Taken in the same sequence, the figures for `CCc1c(C(=O)NCCc2ccc(N3CCCCC3)cc2)[nH]c2ccccc12` were 0.81 µM, 244%, 55.2% and 8.97 µM.
For the compound `Nc1ccc(CCNC(=O)c2cc3cc(Cl)ccc3[nH]2)cc1`, the IC50 in [5] and in [4] was greater than 10 µM throughout. Besides, the inhibition in assay [3] is 37.7%; in [6], 3.6%.
As to `CC(=O)c1c(C(=O)NCCc2ccc(N3CCCCC3)cc2)[nH]c2ccc(Cl)cc12`, the concentration for half-maximal inhibition (IC50) in [5] and in assay [4] was greater than 10 µM in each case. Also, the figures for the inhibition in assay [9] and in assay [3] were 19.9% and 7.9%, respectively.
Turning to `CN(C)c1ccc(CCNC(=O)c2cc3cc(Cl)ccc3[nH]2)cc1`, the EC50 in assay [1] came to 1.53 µM. Further, the Activity in [2] worked out at 171%. Besides, in assay [3], the inhibition was determined as 42.1%. The IC50 in assay [4] is greater than 10 µM.
Taken in the same sequence, the figures for `CCc1c(C(=O)NCCc2ccc([N+](=O)[O-])cc2)[nH]c2ccc(Cl)cc12` were 0.36 µM, 242%, 0% and greater than 10 µM.
Taken in the same sequence, the figures for `CCc1c(C(=O)NCCc2ccc(C)cc2)[nH]c2ccc(Cl)cc12` were 0.55 µM, 189%, 29% and greater than 10 µM.
For the compound `CNc1ccc(CCNC(=O)c2cc3cc(Cl)ccc3[nH]2)cc1`, the concentration for half-maximal inhibition (IC50) in assay [5] and in assay [4] was greater than 10 µM in each case. Besides, the figures for the inhibition in assay [3] and in assay [6] were 43.7% and 3.8%, respectively.
Turning to `O=C(NCCc1ccc(Cl)cc1)c1cc2cc(Cl)ccc2[nH]1`, the EC50 in assay [1] was greater than 10 µM. Also, in [2], the Activity turned out to be 115%. Moreover, the inhibition in assay [3] was determined as 11.1%. The IC50 in assay [4] is greater than 10 µM.
